From patent publication US20110144209A1, “USE OF VASOCONSTRICTORS” (priority 2008, published 2011)

Assays:
[1] = system: adult male Wistar rat; settings: injection into the preoptic area of rat brain; cited from earlier work
[2] = system: Male Wistar rats
Source text: Although there are differences between the thermoregulatory system of rats and humans, the tails and feet pads of rats function as thermoregulatory organs in a similar fashion to human skin. The rat tail skin and feet pads are exposed and not covered by fur. By controlling the blood flow to the tail skin and feet pads, the rat controls some of its heat dissipation to the environment. Only about 30% of the rat heat loss is regulated by the tail—much less than the role of the skin in humans.
Male Wistar rats, each about 400 g mass, were divided into three groups: a control group (C) of 8 rats, a test first group (A) of 7 rats, and a third test group (B) of 5 rats. All rats had test composition applied to the tail skin and the feet pads. All experiments were conducted at 23° C. ambient room temperature. All groups went though an anesthesia period of one hour (t=0 is time of start of anesthesia), and a follow-up period of 3 hours after end of anesthesia. Core body temperature (CBT) and tail skin temperature of the rats was measured using a thermocouple-based digital thermometer with 0.1° C. sensitivity.
For test group A, the cream was identical to that used for the control group, except it contained 6 wt. % epinephrine, a vasoconstrictor. The cream for test group B was the same as that for group A, except that the cream contained 20 wt. % penetration enhancer.
The cream on both control group C and test group A was applied at two times: first, concomitantly with application of anesthesia (t=0), and again at 20 min into anesthesia (t=20 m=⅓ h). CBT and tail temperatures were measured at t=0, 20, 40, 60, 120, 180 and 240 minutes.
In test group (B), two changes were made to the experimental procedure. First, the concentration of penetration enhancer (propylene glycol) in the cream was doubled to 20 wt. %. Second, the time of first cream application was done at 30 min before anesthesia (t=−30 min) and the second cream application was given with initiation of administration of anesthetic (t=0).

[3] = system: pigs; settings: 6 wt.% epinephrine, 10 wt.% propylene glycol cream at t=-40 min and t=0; after 130 minutes; room 20° C.
Protocol: The same composition, but without the epinephrine, was prepared for use as a control. Five pigs, each weighing 55-65 kg, were divided into two groups, three in the experimental group and two in the control group. The cream was administered 40 minutes before the onset of anesthesia (t=−40 min) and again with the commencement of general anesthesia (t=0). The room temperature was 20° C., with +/−1° C. fluctuations due to the thermostat of the air conditioner. The pigs were not covered with anything other than the cream, with which there were covered over their entire skin surface. Core body temperature was measured at t=−40, 0, 30, 50, 70, 100 and 130 min.

[4] = cited from earlier work
[5] = system: porcine carotid arteriovenous anastomoses; settings: porcine (De Vries et al. 1998); cited from earlier work
[6] = humans, 1.5 mg/kg, cited from earlier work
[7] = system: humans; settings: cited from earlier work
[8] = system: rhesus monkeys; settings: cited from earlier work
[9] = system: Sprague Dawley albino rats; experiment: Anesthesia-induced hypothermia in rats, topical norepinephrine cream on tail, feet and ears (Example 2); assay type: in vivo, rat
Protocol: This experiment was similar to the experiment of Example 1, although Sprague Dawley albino rats were used. […] The test cream composition was 10% Norepinephrine vasoactive substance, 10% penetration enhancer (propylene glycol), and 80% conventional base cream.
All rats were subjected to one hour pre-anesthesia time (t=−60 to t=0), one hour anesthesia (t=0 to t=60), and 4 hours post anesthesia (t=60 to t=300). The appropriate cream was applied to the tail, feet, and ears skin surface of each rat. There were four rats in each test/control group. Vasoconstrictor cream was applied to the test group rats 3 times, at t=−60, t=−30, and t=0 min before anesthesia. Core body temperature was measured rectally. Rat tail skin temperature was measured at around the mid-length of the tail by press touching the thermometer tip to the skin surface.

[10] = system: AVA; settings: Pollock et al. 1996; cited from earlier work
[11] = group B: 6 wt.% epinephrine, 20 wt.% propylene glycol

## COc1ccc(OC)c(C(O)C(C)N)c1 (centres unmarked) [methoxamine]
[1]
  effect on body temperature: resulted in hypothermia

## CNC[C@H](O)c1ccc(O)c(O)c1 [epinephrine]
[2]; 6% Epinephrine cream of Example 1
  response time of vasoconstrictor action: 20 to 30 min
[2]; group A: 6 wt.% epinephrine, 10 wt.% propylene glycol
  duration of effect of vasoconstrictor application on CBT after anesthesia: at least 3 hours
[2]; group A: 6 wt.% epinephrine, 10 wt.% propylene glycol, 20 minutes into the experiment
  tail temperature versus control group: higher in the control group than in group A
[2]; group A: 6 wt.% epinephrine, 10 wt.% propylene glycol, after 40 minutes through the remainder of the experiment (240 min)
  difference in CBT between test and control group: one
[2]; group A: cream with 6 wt.% epinephrine, 10 wt.% propylene glycol, applied t=0 and 20 min, first 40 minutes, 23° C. ambient
  difference in CBT between groups A and C: no significant difference
[2]; [11]
  time after which test group temperature rapidly falls off: 2 h
  time from anesthesia within which the CBT difference is established: ≤ 20 min
[2]; group B: 6 wt.% epinephrine, 20 wt.% propylene glycol, applied t=-30 min and t=0, maintained throughout anesthesia (t=60 m)
  difference in CBT versus control group C: 2 °C
[3]
  average decrease in CBT: 0.7 °C
[4]; topical
  time after which activity diminishes significantly: 3 h
  time to initial vasoconstrictor action after application: ≤ 20 min

## CNS(=O)(=O)Cc1ccc2[nH]cc(CCN(C)C)c2c1 [sumatriptan]
[5]
  constriction of carotid arteriovenous anastomoses: potently constrict

## CNC(C)Cc1ccc2c(c1)OCO2 (centres unmarked) [MDMA, 3,4-methylenedioxymethamphetamine]
[6]
  time of peak plasma concentration after oral administration: about two
[6]; oral
  peak plasma concentration (average): 0.331 ng/mL
[7]; humans, all doses tested (up to 2.0 mg/kg), laboratory conditions (Liechti 2000)
  hyperthermic response: little or no hyperthermic response
[7]; recreational users, single exposure (Freedman et al. 2005)
  effect on core body temperature at different ambient temperatures: produced hyperthermia regardless of ambient temperature
[8]; monkeys, after intravenous injection
  time to flat peak of thermoregulatory disruption effect: about 90 minutes
[8]; monkeys, intravenous injection
  duration of flat peak of thermoregulatory disruption effect: about 3 hours
[8]; rhesus monkeys, ambient temperature up to 31° C. (Banks et al. 2007)
  hyperthermic rise compared to control: ≤ 1 °C

## NC[C@H](O)c1ccc(O)c(O)c1 [Norepinephrine, Norepinephrine Bitartrate]
[9]; 10% norepinephrine cream
  start of difference in core body temperature, time into anesthesia: about 20 min
[9]; 10% norepinephrine cream, at about 90 min post anesthesia
  reversal of core and tail temperatures versus control: the control group temperature goes above the test group temperature
[9]; 10% norepinephrine cream, from skin and core temperature
  start of pronounced vasoconstrictor action after first application of cream: about 80 min
[9]; 10% norepinephrine, 10% propylene glycol cream applied t=-60, -30, 0 min, remaining anesthesia period and 60 min post anesthesia
  test group core body temperature higher than control group: 1-1.5 °C
[10]
  effect on AVA: produced AVA vasoconstriction

## CNC[C@H](O)c1cccc(O)c1 [phenylephrine]
[10]
  effect on AVA: produced AVA constriction
[4]; topical / dermal
  time after application at which vasoconstricting effect begins: about 3 hours

## Brc1c(NC2=NCCN2)ccc2nccnc12 [UK-14304, 5-bromo-N-(4,5-dihydro-1H-imidazol-2-yl)-6-quinoxalinamine]
[10]
  effect on AVA: produced constriction of the AVA

## c1ccc2c(c1)CC[C@H](CNCCCNC1=NCCCN1)O2 [alniditan]
[5]
  constriction of carotid arteriovenous anastomoses: potently constrict
